Laboratory results from ChEMBL document CHEMBL5154681, “Small Amphiphilic Peptides: Activity Against a Broad Range of Drug-Resistant Bacteria and Structural Insight into Membranolytic Properties” (J Med Chem, 2022).
≈ marks a conversion by molar mass, not a printed value. Calls of active or inactive are those of the source. No cut-off for these calls is given here. Square brackets hold non-standard residues; d marks the D form. Peptide text beside a SMILES is read from it. Dip = N[C@H](C(=O)O)C(c1ccccc1)c1ccccc1; 2Nal = N[C@@H](Cc1ccc2ccccc2c1)C(=O)O

How the values were obtained:
[1] = tested on: Staphylococcus aureus; assay: Bactericidal activity against methicillin resistant Staphylococcus aureus ATCC BAA-1556 assessed as time required for complete reduction of bacterial growth at MIC by counting formed colonies; type: functional
[2] = Hemolytic activity in human RBC assessed as hemolysis incubated for 2 hrs by spectrophotometer analysis; type: toxicity, cell-based, Erythrocyte; conditions: human red blood cells (erythrocytes)
[3] = tested on: Escherichia coli; assay: Bactericidal activity against Escherichia coli ATCC BAA-2452 assessed as time required for complete reduction of bacterial growth at MIC by counting formed colonies; type: functional
[4] = tested on: Escherichia coli; assay: Antibacterial activity against Escherichia coli ATCC 25922 incubated for 24 hrs by microtiter plate method; type: functional; conditions: Escherichia coli, ATCC 25922, 24 h, read-out: MIC
[5] = Proteolytic stability in human plasma at 100 uM incubated for 24 hrs by Q-TOF LC/MS analysis relative to control; type: ADME, cell-free; conditions: read-out: Stability
[6] = tested on: Cell membrane; assay: Membrano-lytic effect in cytoplasmic membrane of Escherichia coli ATCC BAA-2452 assessed as disruption by measuring propidium iodide fluorescence incubated for 1 hr by FACscan flow cytometer analysis; conditions: DDE = dose-dependent effect
[7] = tested on: Cell membrane; assay: Membrano-lytic effect in cytoplasmic membrane of methicillin resistant Staphylococcus aureus ATCC BAA-1556 assessed as disruption by measuring propidium iodide fluorescence at MIC incubated for 1 hr by FACscan flow cytometer analysis
[8] = tested on: HepaRG; assay: Cytotoxicity against human HPRGC10 assessed as cell viability measured after 24 hrs by microplate spectrophotometer analysis; type: functional, cell-based; conditions: dose <= 250.0 µg/ml, DDE = dose-dependent effect
[9] = tested on: Escherichia coli; assay: Bactericidal activity against Escherichia coli ATCC BAA-2452 assessed as time required for complete reduction of bacterial growth at 4 times MIC by counting formed colonies; type: functional
[10] = tested on: Lipid bilayer; assay: Membrano-lytic effect in bacterial inner membrane mimic DOPC/DOPG (7:3) large unilamellar vesicles assessed as calcein leakage measured upto 100 mins for every 10 mins by multimode microplate reader assay; type: cell membranes; conditions: dose 5-50 µg/ml, DDE = dose-dependent effect
[11] = tested on: Staphylococcus aureus; assay: Antibacterial activity against methicillin resistant Staphylococcus aureus ATCC BAA-1556 incubated for 24 hrs by microtiter plate method; type: functional; conditions: Staphylococcus aureus, ATCC BAA-1556, 24 h, read-out: MIC
[12] = tested on: HEK293; assay: Cytotoxicity against HEK293 assessed as cell viability measured after 24 hrs by microplate spectrophotometer analysis; type: toxicity, cell-based; conditions: human, hek293, 24 h, DDE = dose-dependent effect, dose < 250 µg/ml
[13] = tested on: MRC5; assay: Cytotoxicity against human MRC-5 assessed as cell viability measured after 24 hrs by microplate spectrophotometer analysis; type: toxicity, cell-based; conditions: mrc5, 24 h, DDE = dose-dependent effect, dose < 250 µg/ml
[14] = tested on: Staphylococcus aureus; assay: Bactericidal activity against methicillin resistant Staphylococcus aureus ATCC BAA-1556 assessed as time required for complete reduction of bacterial growth at 4 times MIC by counting formed colonies; type: functional
[15] = tested on: Staphylococcus aureus; assay: Antibacterial activity against Staphylococcus aureus ATCC 29213 incubated for 24 hrs by microtiter plate method; type: functional; conditions: Staphylococcus aureus, ATCC 29213, read-out: MIC
[16] = tested on: Cell membrane; assay: Membrano-lytic effect in cytoplasmic membrane of methicillin resistant Staphylococcus aureus ATCC BAA-1556 assessed as disruption by measuring propidium iodide fluorescence incubated for 1 hr by FACscan flow cytometer analysis; conditions: DDE = dose-dependent effect
[17] = tested on: Lipid bilayer; assay: Induction of membrane disruption in bacterial inner membrane mimic DOPC/DOPG (7:3) large unilamellar vesicles assessed as decrease in particle size of liposome at 1:1 compound to lipid ratio measured after 24 hrs by dynamic light scattering analysis; type: cell membranes
[18] = Proteolytic stability in human plasma at 100 uM incubated for 30 mins by Q-TOF LC/MS analysis relative to control; type: ADME, cell-free; conditions: read-out: Stability
[19] = tested on: Pseudomonas aeruginosa; assay: Antibacterial activity against Pseudomonas aeruginosa ATCC 27883 incubated for 24 hrs by microtiter plate method; type: functional; conditions: Pseudomonas aeruginosa, ATCC 27883, 24 h, read-out: MIC
[20] = tested on: Lipid bilayer; assay: Membrano-lytic effect in mammalian membrane mimic DOPC/cholesterol (10:1) large unilamellar vesicles assessed as calcein leakage measured at 50 microg/ml measured upto 100 mins for every 10 mins by multimode microplate reader assay; type: cell membranes; conditions: dose 50.0 µg/ml
[21] = tested on: HepaRG; assay: Cytotoxicity against human HPRGC10 assessed as cell viability at 250 ug/ml incubated for 24 hrs by microplate spectrophotometer analysis method relative to control; type: functional; conditions: read-out: Activity
[22] = tested on: MRC5; assay: Cytotoxicity against human MRC-5 assessed as cell viability at 250 ug/ml incubated for 24 hrs by microplate spectrophotometer analysis method; type: toxicity, cell-based; conditions: mrc5, 24 h, dose 250 µg/ml
[23] = Cytotoxicity against HEK293 assessed as cell viability at 250 ug/ml incubated for 24 hrs by microplate spectrophotometer analysis method relative to control; type: toxicity, cell-based; conditions: human, HEK293 cells, at 250 µg/mL, read-out: Activity
[24] = tested on: Streptococcus pneumoniae; assay: Antibacterial activity against multidrug resistant […] ATCC 700677 incubated for 24 hrs by microtiter plate method; type: functional
[25] = tested on: Streptococcus pneumoniae; assay: Antibacterial activity against […] ATCC 49619 incubated for 24 hrs by microtiter plate method; type: functional
[26] = tested on: Enterococcus faecalis; assay: Antibacterial activity against vancomycin-resistant Enterococcus faecalis ATCC 51575 incubated for 24 hrs by microtiter plate method; type: functional
[27] = tested on: Enterococcus faecium; assay: Antibacterial activity against vancomycin-resistant Enterococcus faecium ATCC 700221 incubated for 24 hrs by microtiter plate method; type: functional
[28] = tested on: Escherichia coli; assay: Antibacterial activity against Escherichia coli NDM-1-resistant ATCC BAA-2452 incubated for 24 hrs by microtiter plate method; type: functional
[29] = tested on: Enterococcus faecium; assay: Antibacterial activity against Enterococcus faecium ATCC 27270 incubated for 24 hrs by microtiter plate method; type: functional
[30] = Selectivity ratio of MIC for antibacterial activity against Pseudomonas aeruginosa ATCC 10145 to MIC for antibacterial activity against imipenem-resistant Pseudomonas aeruginosa ATCC BAA-1744; type: functional
[31] = tested on: Klebsiella pneumoniae; assay: Antibacterial activity against carbapenem-resistant Klebsiella pneumoniae ATCC BAA-2470 incubated for 24 hrs by microtiter plate method; type: functional
[32] = tested on: Pseudomonas aeruginosa; assay: Antibacterial activity against Pseudomonas aeruginosa ATCC 10145 incubated for 24 hrs by microtiter plate method; type: functional
[33] = Selectivity ratio of MIC for antibacterial activity against Klebsiella pneumoniae ATCC 13883 to MIC for antibacterial activity against carbapenem-resistant Klebsiella pneumoniae ATCC BAA-2470; type: functional
[34] = tested on: Acinetobacter baumannii; assay: Antibacterial activity against ciprofloxacin resistance Acinetobacter baumannii ATCC BAA1605 incubated for 24 hrs by microtiter plate method; type: functional
[35] = tested on: Klebsiella pneumoniae; assay: Antibacterial activity against Klebsiella pneumoniae ATCC 13883 […] incubated for 24 hrs by microtiter plate method; type: functional
[36] = tested on: Bacillus subtilis; assay: Antibacterial activity against Bacillus subtilis ATCC 6633 incubated for 24 hrs by microtiter plate method; type: functional
[37] = tested on: Bacillus cereus; assay: Antibacterial activity against Bacillus cereus ATCC 13061 incubated for 24 hrs by microtiter plate method; type: functional
[38] = tested on: Enterococcus faecalis; assay: Antibacterial activity against Enterococcus faecalis ATCC 29212 incubated for 24 hrs by microtiter plate method; type: functional
[39] = tested on: Pseudomonas aeruginosa; assay: Antibacterial activity against imipenem resistant Pseudomonas aeruginosa ATCC BAA-1744 incubated for 24 hrs by microtiter plate method; type: functional

Structure (SMILES) | Time [1] | HC50 at 2 h [2] | Time [3] | MIC [4] | remaining at 24 h, 100 µM [5] | Activity [6] | Activity [7] | Time [9] | Activity [10] | MIC [11] | Time [14] | MIC [15] | Activity [16] | Activity [17] | remaining at 0.5 h, 100 µM [18] | MIC [19] | Activity [20] | further results
N=C(N)NCCC[C@H](NC(=O)[C@H](CCCNC(=N)N)NC(=O)[C@@H](N)CCCNC(=N)N)C(=O)N[C@@H](CCCNC(=N)N)C(=O)N[C@H](C(=O)N[C@H](C(=O)N[C@H](C(=O)O)C(c1ccccc1)c1ccccc1)C(c1ccccc1)c1ccccc1)C(c1ccccc1)c1ccccc1 (H-RRRR[Dip][Dip][Dip]-OH) | 3 h | 145 µg/mL | 4 h | 12.5 µg/mL (≈ 9.52 µM) | 21% | Dde | 35% | 2.5 h | Dde | 6.2 µg/mL (≈ 4.72 µM) | 2 h | 6.2 µg/mL (≈ 4.72 µM) | Dde | Active | 69% | 12.5 µg/mL (≈ 9.52 µM) | 8% | Activity [8]: Dde; Activity [12]: Dde; Activity [13]: Dde
N=C(N)NCCC[C@H](NC(=O)[C@H](CCCNC(=N)N)NC(=O)[C@H](CCCNC(=N)N)NC(=O)[C@@H](N)CCCNC(=N)N)C(=O)N[C@@H](Cc1ccc2ccccc2c1)C(=O)N[C@@H](Cc1ccc2ccccc2c1)C(=O)N[C@@H](Cc1ccc2ccccc2c1)C(=O)O (H-RRRR[2Nal][2Nal][2Nal]-OH) | 3 h | 130 µg/mL | 4 h |  | 32% | Dde | 35% | 2.5 h | Dde | 6.2 µg/mL (≈ 5.02 µM) | 2 h | 6.2 µg/mL (≈ 5.02 µM) | Dde | Active | 62% | 25 µg/mL (≈ 20.3 µM) | 6% | viability at 250 µg/mL [21]: 47%; Activity [22]: Non-Toxic; viability at 24 h, 250 ug/ml [23]: 69%
N=C(N)NCCC[C@@H]1NC(=O)[C@H](CCCNC(=N)N)NC(=O)[C@H](C(c2ccccc2)c2ccccc2)NC(=O)[C@H](C(c2ccccc2)c2ccccc2)NC(=O)[C@H](C(c2ccccc2)c2ccccc2)NC(=O)[C@H](CCCNC(=N)N)NC1=O (cyclo([Dip][Dip][Dip]RRR)) |  | 45 µg/mL |  | 12.5 µg/mL (≈ 11 µM) |  |  |  |  |  | 3.1 µg/mL (≈ 2.72 µM) |  | 3.1 µg/mL (≈ 2.72 µM) |  |  |  | 12.5 µg/mL (≈ 11 µM) |  | MIC [24]: 25 µg/mL (≈ 22 µM); MIC [25]: 50 µg/mL (≈ 43.9 µM); MIC [26]: 12.5 µg/mL (≈ 11 µM); MIC [27]: 6.2 µg/mL (≈ 5.45 µM); MIC [28]: 25 µg/mL (≈ 22 µM); MIC [29]: 3.1 µg/mL (≈ 2.72 µM); Ratio [30]: 2; MIC [31]: 12.5 µg/mL (≈ 11 µM); MIC [32]: 50 µg/mL (≈ 43.9 µM); Ratio [33]: 2; MIC [34]: 25 µg/mL (≈ 22 µM); MIC [35]: > 50 µg/mL; MIC [36]: 3.1 µg/mL (≈ 2.72 µM); MIC [37]: 6.2 µg/mL (≈ 5.45 µM); MIC [38]: 12.5 µg/mL (≈ 11 µM); MIC [39]: 25 µg/mL (≈ 22 µM)
